Source: US20180071317A1, “USE OF AGENTS THAT ALTER THE PERITUMORAL ENVIRONMENT FOR THE TREATMENT OF CANCER” (SERVICIO ANDALUZ DE SALUD, priority 2011, published 2018)

Assays:
[1] = system: fibroblasts of tumors produced by human rhabdomyosarcoma tumor line (A-204); test: Marker expression (IHC) in fibroblasts of tumor or peritumoral area, mouse model, A-204; assay type: in vivo; conditions: A-204 tumors in mice, 30 mg/kg/day oral, 7 days
Procedure: In vitro tests conducted in Example 5 are now carried out in an experimental model in mice in vivo. […] Subsequently, the expression in fibroblasts tumoral and peritumoral area of molecular markers associated with progression and maintenance of tumors: TGF-α, TGF-β1, TGF-β2, TGF-β3, MMP-7, MMP-11, MMP-14 were analyzed by immunohistochemistry.
Were injected with 2×10^7 cells tumors (corresponding, in each case to each of the tumor types as specified in Table 9) in 200 of PBS subcutaneously μl. […] Mice were randomized into two groups when the tumors reached a volume of 75 mm^3 One group was treated with non-peptide receptor antagonists NK1 and the other with placebo 200μ1. […] Tumors and samples of non-neoplastic stromal areas remote from the tumor were halved, formalin fixed (4%) and then were included in paraffin blocks for analysis by immunohistochemistry.
The expression on fibroblast cells obtained in the animal model was analyzed by immunohistochemistry, of the above markers: TGF-α, TGF-β1, TGF-β2, TGF-β3, MMP-7, MMP-1 1, MMP-14MP-14. Tables 32 to 35 depict the type of label used and the average percentage of fibroblasts present in non-tumor areas, tumor and peritumoral (±SD) which were expressing the marker shown in each of the tumor types developed from of the different cell lines used. This process was realized in mice treated with non-peptide antagonists of NK1 receptor and in untreated animals (control).

[2] = system: fibroblasts (PHF) co-cultured with human fibrosarcoma tumor cells (HT-1080); test: Marker expression (IHC) in PHF co-cultured with HT-1080 tumor cells; assay type: cell-based; conditions: co-culture with HT-1080; SP 1 μM + antagonist 1 μM; 48 h;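 note: cultures grown in fresh human plasma from a healthy donor, six replicates, value is percent of fibroblasts positive for the marker, compared with fibroblasts cultured without tumor cells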
Procedure: (§1) All cultures were maintained 48 hours, following which the same cells were included in paraffin blocks for subsequent analysis of the expression of different markers by immunohistochemistry (see Example 1). […] All experiments were carried out sixfold. Analyzed markers in fibroblast cells (stromal cells) were: TGF-α, TGF-β1, TGF-β2, TGF-β3, SPARC, MMP-3, MMP-7, MMP-9, MMP-11, MMP-13 and MMP-14.

[3] = system: fibroblasts (PHF) co-cultured with tumor cells, thyroid carcinoma (reference A-427); test: Marker expression (IHC) in PHF co-cultured with thyroid carcinoma tumor cells; assay type: cell-based, human; conditions: co-culture with thyroid carcinoma cells; SP 1 μM + antagonist 1 μM; 48 h;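 note: grown in fresh plasma from a healthy human donor, read-out is percent of fibroblasts positive for each marker, compared with fibroblasts cultured alone, run in six replicates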
Procedure: as §1

[4] = system: fibroblasts (PHF) co-cultured with tumor cells, thyroid carcinoma; test: as above; assay type: cell-based, human; conditions: co-culture with thyroid carcinoma cells; SP 1 μM + antagonist 1 μM; 48 h
Procedure: as §1

[5] = system: fibroblasts (PHF) co-cultured with tumor cells of human Burkitt lymphoma (CA-46); test: Marker expression (IHC) in PHF co-cultured with CA-46 tumor cells; assay type: cell-based; conditions: PHF co-cultured with CA-46 + SP + NK1 antagonist;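 note: percentage of PHF fibroblasts positive for each marker, cultures grown in fresh human plasma from a healthy donor, six replicates, compared with fibroblasts cultured alone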
[6] = system: fibroblasts of tumors produced by lung carcinoma non small cell human (HCC-44) cells; test: Marker expression (IHC) in fibroblasts of tumor or peritumoral area, mouse model, HCC-44; assay type: in vivo; conditions: HCC-44 tumors in mice, 30 mg/kg/day oral, 7 days
Procedure: The expression on fibroblast cells obtained in the animal model was analyzed by immunohistochemistry, of the above markers: TGF-α, TGF-β1, TGF-β2, TGF-β3, MMP-7, MMP-1 1, MMP-14MP-14. […] This process was realized in mice treated with non-peptide antagonists of NK1 receptor and in untreated animals (control).

[7] = system: macrophages in co-culture with cells isolated from primary human tumors; test: Marker expression (IHC) in macrophages co-cultured with primary human tumor cells (colon, breast, ovarian, lung carcinoma, melanoma); assay type: cell-based; conditions: SP 1 μM + antagonist 1 μM;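 note: macrophages came from pleural or peritoneal washings of the patient who also supplied the tumor cells, and both were co-cultured on fresh blood plasma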
[8] = system: fibroblasts (PHF) co-cultured with tumor cells of human endometrial carcinoma (AN3-CA); test: Marker expression (IHC) in PHF co-cultured with AN3-CA tumor cells; assay type: cell-based; conditions: co-culture with AN3-CA; SP 1 μM + antagonist 1 μM; 48 h;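 note: cultured in fresh healthy-donor blood plasma with added antibiotic-antimycotic, run in six replicates, values give percent of fibroblasts positive for each marker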
Procedure: as §1

[9] = system: fibroblasts (PHF) co-cultured with tumor cells of human cervix carcinoma (KB); test: Marker expression (IHC) in PHF co-cultured with KB tumor cells; assay type: cell-based; conditions: co-culture with KB; SP 1 μM + antagonist 1 μM; 48 h;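 note: percentage of PHF fibroblasts showing expression of each marker, cultured in fresh blood plasma from a healthy human donor, six replicates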
Procedure: as §1

[10] = system: fibroblasts (PHF) co-cultured with human melanoma tumor cells (MEL-HO1); test: Marker expression (IHC) in PHF co-cultured with MEL-HO1 tumor cells; assay type: cell-based; conditions: PHF co-cultured with MEL-HO1 + SP + NK1 antagonist;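 note: values are the percentage of fibroblasts positive for each marker, with cultures grown in fresh healthy-donor blood plasma and each experiment run six times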
Procedure: as §1

[11] = co-culture with cells isolated from breast carcinoma
[12] = co-culture with cells isolated from colon carcinoma
[13] = co-culture with cells isolated from lung carcinoma
[14] = co-culture with cells isolated from melanoma
[15] = co-culture with cells isolated from ovarian carcinoma

C[C@@H](O[C@H]1OCCN(Cc2n[nH]c(=O)[nH]2)[C@H]1c1ccc(F)cc1)c1cc(C(F)(F)F)cc(C(F)(F)F)c1 [Aprepitant]
0%: fibroblasts expressing MMP-7 [1] | fibroblasts expressing MMP-11 [1] | fibroblasts expressing MMP-14 [1] | fibroblasts expressing TGF-α [1] | fibroblasts expressing TGF-β 1 [1] | fibroblasts expressing TGF-β 2 [1] | fibroblasts expressing TGF-β 3 [1] | PHF cells expressing MMP-3 [2] | PHF cells expressing MMP-7 [2] | PHF cells expressing MMP-9 [2] | PHF cells expressing MMP-11 [2] | PHF cells expressing MMP-13 [2] | PHF cells expressing MMP-14 [2] | PHF cells expressing SPARC [2] | PHF cells expressing TGF-α [2] | PHF cells expressing TGF-β1 [2] | PHF cells expressing TGF-β2 [2] | PHF cells expressing TGF-β3 [2] | PHF cells expressing MMP-3 [3] | PHF cells expressing MMP-7 [3] | PHF cells expressing MMP-9 [3] | PHF cells expressing MMP-13 [3] | PHF cells expressing MMP-14 [3] | PHF cells expressing SPARC [3] | PHF cells expressing TGF-α [3] | PHF cells expressing TGF-β1 [3] | PHF cells expressing TGF-β2 [3] | PHF cells expressing TGF-β3 [3] | PHF cells expressing MMP-11 [4] | cells expressing MMP-3 [5] | cells expressing MMP-7 [5] | cells expressing MMP-9 [5] | cells expressing MMP-11 [5] | cells expressing MMP-13 [5] | cells expressing MMP-14 [5] | cells expressing SPARC [5] | cells expressing TGF-α [5] | cells expressing TGF-β1 [5] | cells expressing TGF-β2 [5] | cells expressing TGF-β3 [5] | fibroblasts expressing MMP-7 [6] | fibroblasts expressing MMP-11 [6] | fibroblasts expressing MMP-14 [6] | fibroblasts expressing TGF-α [6] | fibroblasts expressing TGF-β 1 [6] | fibroblasts expressing TGF-β 2 [6] | fibroblasts expressing TGF-β 3 [6] | Percentage of macrophages which expressed EGF [7, 11] | Percentage of macrophages which expressed MMP-9 [7, 11] | Percentage of macrophages which expressed VEGF [7, 11] | Percentage of macrophages which expressed EGF [7, 12] | Percentage of macrophages which expressed MMP-9 [7, 12] | Percentage of macrophages which expressed VEGF [7, 12] | Percentage of macrophages which expressed EGF [7, 13] | Percentage of macrophages which expressed MMP-9 [7, 13] | Percentage of macrophages which expressed VEGF [7, 13] | Percentage of macrophages which expressed EGF [7, 14] | Percentage of macrophages which expressed MMP-9 [7, 14] | Percentage of macrophages which expressed VEGF [7, 14] | Percentage of macrophages which expressed EGF [7, 15] | Percentage of macrophages which expressed MMP-9 [7, 15] | Percentage of macrophages which expressed VEGF [7, 15] | PHF cells expressing MMP-3 [8] | PHF cells expressing MMP-7 [8] | PHF cells expressing MMP-9 [8] | PHF cells expressing MMP-11 [8] | PHF cells expressing MMP-13 [8] | PHF cells expressing MMP-14 [8] | PHF cells expressing SPARC [8] | PHF cells expressing TGF-α [8] | PHF cells expressing TGF-β1 [8] | PHF cells expressing TGF-β2 [8] | PHF cells expressing TGF-β3 [8] | PHF cells expressing MMP-3 [9] | PHF cells expressing MMP-7 [9] | PHF cells expressing MMP-9 [9] | PHF cells expressing MMP-11 [9] | PHF cells expressing MMP-13 [9] | PHF cells expressing MMP-14 [9] | PHF cells expressing SPARC [9] | PHF cells expressing TGF-α [9] | PHF cells expressing TGF-β1 [9] | PHF cells expressing TGF-β2 [9] | PHF cells expressing TGF-β3 [9] | cells expressing MMP-3 [10] | cells expressing MMP-7 [10] | cells expressing MMP-9 [10] | cells expressing MMP-11 [10] | cells expressing MMP-13 [10] | cells expressing MMP-14 [10] | cells expressing SPARC [10] | cells expressing TGF-α [10] | cells expressing TGF-β1 [10] | cells expressing TGF-β2 [10] | cells expressing TGF-β3 [10]
